Reference: patent US20250346592A1 (Celgene Corporation, priority 2022, published 2025)

Key:
hPAD4 enzyme [1] = target: T1, hPAD4 enzyme (Homo sapiens (Human), UniProt Q9UM07); assay: RFMS1 assay (RapidFire mass spectrometry, BAEE substrate); format: biochemical; settings: 5 nM hPAD4, 250 μM BAEE, 30 min preincubation at 37° C., 90 min reaction; read-out: RFMS 1 IC50
Method in brief: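 hPAD4 (5 nM) preincubated 30 min at 37° C. with compound, then 250 μM BAEE for 90 min at 37° C. in pH 7.5 HEPES buffer with 50 μM calcium, 1 mM DTT, 5 μM TPEN. TCA quench, phenyl glyoxal derivatisation; citrulline product measured by RapidFire MS, normalised to internal standard; IC50 values.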

hPAD4 enzyme [2] = target: T1, hPAD4 enzyme; assay: RFMS2 assay (RapidFire mass spectrometry, TSTGGRQGSHH peptide substrate); format: biochemical; settings: 35 nM recombinant human PAD4, 500 μM TSTGGRQGSHH peptide, 30 minutes at room temperature; read-out: RFMS 2 IC50
Method in brief: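 Recombinant human PAD4 (35 nM) with 500 μM TSTGGRQGSHH peptide in HEPES pH 7.4, 200 mM NaCl, 2 mM CaCl2, 5 mM DTT, 1.2% DMSO, 30 min at room temperature; 3-fold compound series, top 20 μM. Quenched with formic acid; substrate and citrullinated product quantified by RapidFire MRM mass spectrometry for IC50.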

T1 sequence (Q9UM07 whole entry): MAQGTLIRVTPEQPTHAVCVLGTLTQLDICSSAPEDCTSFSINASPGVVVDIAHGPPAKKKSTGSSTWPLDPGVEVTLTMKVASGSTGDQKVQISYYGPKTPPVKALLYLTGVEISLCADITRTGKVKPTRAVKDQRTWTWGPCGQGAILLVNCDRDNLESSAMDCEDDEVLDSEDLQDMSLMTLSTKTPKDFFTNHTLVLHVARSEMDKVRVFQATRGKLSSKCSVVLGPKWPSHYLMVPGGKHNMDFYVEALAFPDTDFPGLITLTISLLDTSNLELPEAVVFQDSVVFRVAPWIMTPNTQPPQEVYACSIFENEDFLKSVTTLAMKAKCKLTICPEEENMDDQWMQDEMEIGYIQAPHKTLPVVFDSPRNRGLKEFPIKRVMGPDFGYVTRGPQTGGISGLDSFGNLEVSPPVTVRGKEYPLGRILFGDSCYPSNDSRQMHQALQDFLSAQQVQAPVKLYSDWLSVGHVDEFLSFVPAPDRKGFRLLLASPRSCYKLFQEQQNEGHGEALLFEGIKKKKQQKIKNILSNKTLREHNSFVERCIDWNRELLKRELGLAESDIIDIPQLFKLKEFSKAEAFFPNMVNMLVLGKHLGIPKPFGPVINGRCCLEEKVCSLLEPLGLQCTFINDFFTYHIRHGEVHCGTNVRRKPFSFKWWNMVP

COc1cccc2cc(-c3nc4cc5c(cc4n3C)CCN(C[C@H](N)CF)C5=O)n(Cc3cc(N)no3)c12 [Example 146, (S)-6-(2-amino-3-fluoropropyl)-2-(1-((3-aminoisoxazol-5-yl)methyl)-7-methoxy-1H-indol-2-yl)-1-methyl-1,6,7,8-tetrahydro-5H-imidazo[4,5-g]isoquinolin-5-one]
IC50 (hPAD4 enzyme [1]): 11 to 100 nM | IC50 (hPAD4 enzyme [2]): 101 to 500 nM

Cn1c(-c2cc3ccccc3n2CC2CC2)nc2cc3c(cc21)CCN(CC(C)(C)N)C3=O [Example 6, 6-(2-amino-2-methyl-propyl)-2-[1-(cyclopropylmethyl)indol-2-yl]-1-methyl-7,8-dihydroimidazo[4,5-g]isoquinolin-5-one]
IC50 (hPAD4 enzyme [1]): > 1000 nM | IC50 (hPAD4 enzyme [2]): > 1000 nM

Cn1c(-c2cc3cccc(OCCn4cnnc4)c3n2CC2CC2)nc2cc3c(cc21)CCN(C[C@H]1COCCN1)C3=O [Example 234, 2-[1-(cyclopropylmethyl)-7-[2-(1,2,4-triazol-4-yl)ethoxy]indol-2-yl]-1-methyl-6-[[(3S)-morpholin-3-yl]methyl]-7,8-dihydroimidazo[4,5-g]isoquinolin-5-one]
IC50 (hPAD4 enzyme [1]): 11 to 100 nM | IC50 (hPAD4 enzyme [2]): 501 to 1000 nM

COc1cccc2cc(-c3nc4cc5c(c(F)c4n3C)CCN(C[C@H](N)CF)C5=O)n(CC3CC3)c12 [Example 238, (S)-6-(2-amino-3-fluoropropyl)-2-(1-(cyclopropylmethyl)-7-methoxy-1H-indol-2-yl)-9-fluoro-1-methyl-1,6,7,8-tetrahydro-5H-imidazo[4,5-g]isoquinolin-5-one]
IC50 (hPAD4 enzyme [1]): 11 to 100 nM | IC50 (hPAD4 enzyme [2]): 101 to 500 nM

CN1CC(COc2cccc3cc(-c4nc5cc6c(cc5n4C)CCN(C[C@H](N)CF)C6=O)n(CC4CC4)c23)CC1=O (stereo partly drawn) [Example 184, 6-((S)-2-amino-3-fluoropropyl)-2-(1-(cyclopropylmethyl)-7-((1-methyl-5-oxopyrrolidin-3-yl)methoxy)-1H-indol-2-yl)-1-methyl-1,6,7,8-tetrahydro-5H-imidazo[4,5-g]isoquinolin-5-one]
IC50 (hPAD4 enzyme [1]): 11 to 100 nM | IC50 (hPAD4 enzyme [2]): 101 to 500 nM

COc1cccc2cc(-c3nc4cc5c(cc4n3C)CCN(C[C@H](N)CF)C5=O)n(Cc3nccs3)c12 [Example 127, (S)-6-(2-amino-3-fluoropropyl)-2-(7-methoxy-1-(thiazol-2-ylmethyl)-1H-indol-2-yl)-1-methyl-1,6,7,8-tetrahydro-5H-imidazo[4,5-g]isoquinolin-5-one]
IC50 (hPAD4 enzyme [1]): 101 to 500 nM | IC50 (hPAD4 enzyme [2]): 101 to 500 nM

Cn1cncc1CCOc1cccc2cc(-c3nc4cc5c(cc4n3C)CCN(C[C@H](N)CF)C5=O)n(CC3CC3)c12 [Example 169, (S)-6-(2-amino-3-fluoropropyl)-2-(1-(cyclopropyl-methyl)-7-(2-(1-methyl-1H-imidazol-5-yl)ethoxy)-1H-indol-2-yl)-1-methyl-1,6,7,8-tetrahydro-5H-imidazo [4,5-g]isoquinolin-5-one]
IC50 (hPAD4 enzyme [1]): 11 to 100 nM | IC50 (hPAD4 enzyme [2]): 101 to 500 nM

COc1cccc2cc(-c3nc4cc5c(cc4n3C)CCN(C[C@H](N)CF)C5=O)n(Cc3nc(C)co3)c12 [Example 124, (S)-6-(2-amino-3-fluoropropyl)-2-(7-methoxy-1-((4-methyloxazol-2-yl)methyl)-1H-indol-2-yl)-1-methyl-1,6,7,8-tetrahydro-5H-imidazo[4,5-g]isoquinolin-5-one]
IC50 (hPAD4 enzyme [1]): 11 to 100 nM | IC50 (hPAD4 enzyme [2]): 101 to 500 nM

Cn1c(-c2cc3cccc(OC[C@@H]4CNC(=O)C4)c3n2CC2CC2)nc2cc3c(cc21)CCN(C[C@H](N)CF)C3=O [Example 190, 6-((S)-2-amino-3-fluoropropyl)-2-(1-(cyclopropylmethyl)-7-(((S)-5-oxopyrrolidin-3-yl)methoxy)-1H-indol-2-yl)-1-methyl-1,6,7,8-tetrahydro-5H-imidazo[4,5-g]isoquinolin-5-one]
IC50 (hPAD4 enzyme [1]): ≤ 10 nM | IC50 (hPAD4 enzyme [2]): 11 to 100 nM

Cn1c(-c2cc3cccc(OCCc4c[nH]nn4)c3n2CC2CC2)nc2cc3c(cc21)CCN(C[C@H](N)CF)C3=O [Example 199, (S)-2-(7-(2-(1H-1,2,3-triazol-4-yl)ethoxy)-1-(cyclopropyl-methyl)-1H-indol-2-yl)-6-(2-amino-3-fluoropropyl)-1-methyl-1,6,7,8-tetrahydro-5H-imidazo[4,5-g]isoquinolin-5-one]
IC50 (hPAD4 enzyme [1]): ≤ 10 nM | IC50 (hPAD4 enzyme [2]): 11 to 100 nM

C[C@@H](COc1cccc2cc(-c3nc4cc5c(cc4n3C)CCN(C[C@H](N)CF)C5=O)n(CC3CC3)c12)n1ccnc1 [Example 212, 2-(7-((S)-2-(1H-imidazol-1-yl)propoxy)-1-(cyclopropylmethyl)-1H-indol-2-yl)-6-((S)-2-amino-3-fluoropropyl)-1-methyl-1,6,7,8-tetrahydro-5H-imidazo[4,5-g]isoquinolin-5-one]
IC50 (hPAD4 enzyme [1]): ≤ 10 nM | IC50 (hPAD4 enzyme [2]): 11 to 100 nM

Cn1c(-c2cc3ccccc3n2CC2CC2)nc2cc3c(cc21)CCN(C[C@H](N)C(F)F)C3=O [Example 14, (S)-6-(2-amino-3,3-difluoropropyl)-2-(1-(cyclopropylmethyl)-1H-indol-2-yl)-1-methyl-1,6,7,8-tetrahydro-5H-imidazo[4,5-g]isoquinolin-5-one]
IC50 (hPAD4 enzyme [1]): 501 to 1000 nM | IC50 (hPAD4 enzyme [2]): > 1000 nM

COc1cccc2cc(-c3nc4cc5c(cc4n3C)CCN(C[C@H](N)[C@H](C)F)C5=O)n(CC3CC3)c12 [Example 15a, 6-((2S,3S)-2-amino-3-fluorobutyl)-2-(1-(cyclopropylmethyl)-7-methoxy-1H-indol-2-yl)-1-methyl-1,6,7,8-tetrahydro-5H-imidazo[4,5-g]isoquinolin-5-one]
IC50 (hPAD4 enzyme [1]): 101 to 500 nM | IC50 (hPAD4 enzyme [2]): 101 to 500 nM

COC(=O)N[C@@H](C)COc1cccc2cc(-c3nc4cc5c(cc4n3C)CCN(C[C@H](N)CF)C5=O)n(CC3CC3)c12 [Example 208, methyl ((S)-1-((2-(6-((S)-2-amino-3-fluoropropyl)-1-methyl-5-oxo-5,6,7,8-tetrahydro-1H-imidazo[4,5-g]isoquinolin-2-yl)-1-(cyclopropylmethyl)-1H-indol-7-yl)oxy)propan-2-yl)carbamate]
IC50 (hPAD4 enzyme [1]): 11 to 100 nM | IC50 (hPAD4 enzyme [2]): 101 to 500 nM

Cn1c(-c2cc3cccc(CCCn4ccnc4)c3n2CC2CC2)nc2cc3c(cc21)CCN(C[C@H](N)CF)C3=O [Example 228, (S)-2-(7-(3-(1H-imidazol-1-yl)propyl)-1-(cyclopropylmethyl)-1H-indol-2-yl)-6-(2-amino-3-fluoropropyl)-1-methyl-1,6,7,8-tetrahydro-5H-imidazo[4,5-g]isoquinolin-5-one]
IC50 (hPAD4 enzyme [1]): ≤ 10 nM | IC50 (hPAD4 enzyme [2]): 101 to 500 nM

COc1cccc2cc(-c3nc4cc5c(cc4n3C)CCN(C[C@H](N)C(C)F)C5=O)n(CC3CC3)c12 (stereo partly drawn) [Example 15b, 6-((2S,3R)-2-amino-3-fluorobutyl)-2-(1-(cyclopropylmethyl)-7-methoxy-1H-indol-2-yl)-1-methyl-1,6,7,8-tetrahydro-5H-imidazo[4,5-g]isoquinolin-5-one]
IC50 (hPAD4 enzyme [1]): 101 to 500 nM | IC50 (hPAD4 enzyme [2]): 501 to 1000 nM

CC[C@@H](N)CN1CCc2cc3c(cc2C1=O)nc(-c1cc2ccccc2n1CC1CC1)n3C [Example 9, (R)-6-(2-aminobutyl)-2-(1-(cyclopropylmethyl)-1H-indol-2-yl)-1-methyl-1,6,7,8-tetrahydro-5H-imidazo[4,5-g]isoquinolin-5-one]
IC50 (hPAD4 enzyme [1]): 501 to 1000 nM | IC50 (hPAD4 enzyme [2]): 101 to 500 nM

Cn1c(-c2cc3cccc(OCCn4cnnn4)c3n2CC2CC2)nc2cc3c(cc21)CCN(C[C@H](N)CF)C3=O [Example 186, (S)-2-(7-(2-(1H-tetrazol-1-yl)ethoxy)-1-(cyclopropylmethyl)-1H-indol-2-yl)-6-(2-amino-3-fluoropropyl)-1-methyl-1,6,7,8-tetrahydro-5H-imidazo[4,5-g]isoquinolin-5-one]
IC50 (hPAD4 enzyme [1]): ≤ 10 nM | IC50 (hPAD4 enzyme [2]): 11 to 100 nM

COc1cccc2cc(-c3nc4cc5c(cc4n3C)CCN(C[C@@H](C)N)C5=O)n(CC3CC3)c12 [Example 35, (R)-6-(2-aminopropyl)-2-(1-(cyclopropylmethyl)-7-methoxy-1H-indol-2-yl)-1-methyl-1,6,7,8-tetrahydro-5H-imidazo[4,5-g]isoquinolin-5-one]
IC50 (hPAD4 enzyme [1]): 11 to 100 nM | IC50 (hPAD4 enzyme [2]): 11 to 100 nM
